The record followed here is patent US7803788B2, “Prodrugs of phosphonate nucoleotide analogues” (Gilead Sciences, Inc., priority 2000, dated 2010).

Where two headings read alike, the source gives them in different places.

Broadly, the CC50 is the concentration at which the toxic effect on the cells reaches its halfway point. Low readings indicate harm at low concentration, high ones better tolerance by the cells. As a reminder, the IC50 is the concentration that gives 50% inhibition.

Data set [1] concerns HIV-1. Put plainly: In vitro anti-HIV-1 activity in MT-2 cells. The format is cell-based.
For data set [2], the system named is MT-2 cells. Put plainly: Cytotoxicity in MT-2 cells. As to conditions: Table 4.
Data set [3] can be described thus: Stability in human plasma. It is filed as in vitro ADME. As to conditions: 37° C., TBS pH 7.5. As to the method:
(§1) The in vitro metabolism and stability of separated diastereomers were determined in PLCE, MT-2 extract and human plasma. A biological sample listed below, 80 μL, was transferred into a screw-capped centrifuge tube and incubated at 37° C. for 5 min. A solution containing 0.2 mg/mL of the test compound in a suitable buffer, 20 μL, was added to the biological sample and mixed. The reaction mixture, 20 μL, was immediately sampled and mixed with 60 μL of methanol containing 0.015 mg/mL of 2-hydroxymethylnaphthalene as an internal standard for HPLC analysis. The sample was taken as the time-zero sample. Then, at specific time points, the reaction mixture, 20 μL, was sampled and mixed with 60 μl of methanol containing the internal standard. The mixture thus obtained was centrifuged at 15,000 G for 5 min and the supernatant was analyzed with HPLC under the conditions described below.
(§2) The biological samples evaluated are as follows, • (1) PLCE (porcine liver carboxyesterase from Sigma, 160 u/mg protein, 21 mg protein/mL) diluted 20 fold with PBS (phosphated-buffered saline). • (2) MT-2 cell extract was prepared from MT-2 cells according to the published procedure [A. Pompon, I. Lefebvre, J.-L. Imbach, S. Kahn, and D. Farquhar, “Antiviral Chemistry & Chemotherapy”, 5:91-98 (1994)] except for using HEPES buffer described below as the medium. • (3) Human plasma (pooled normal human plasma from George King Biomedical Systems, Inc.)
In the study for human plasma, the test compound was dissolved in TBS. TBS (tris-buffered saline, Sigma) contains 0.05 M Tris, 0.0027 M potassium chloride, and 0.138 M sodium chloride. pH 7.5 at 37° C.
(§3) The HPLC analysis was carried out under the following conditions.

Data set [4] is described as follows: Stability / hydrolysis in MT-2 cell extract. The following applies: 37° C., HEPES buffer pH 7.4. It is filed as in vitro ADME. As to the method:
as §1, §2
In the study for MT-2 cell extracts, the test compound was dissolved in HEPES buffer. HEPES buffer contains 0.010 M HEPES, 0.05 M potassium chloride, 0.005 M magnesium chloride, and 0.005 M dl-dithiothreitol. pH 7.4 at 37° C.
as §3

Data set [5] is described as follows: Excretion and tissue distribution of radiolabelled GS-7340 in dogs. The following applies: for % Dose / Conc.: dogs, oral 10 mg-eq. PMPA/kg. As to the method: Plasma and peripheral blood mononuclear cells (PBMCs) were obtained over the 24-hr period. Urine and feces were cage collected over 24 hr. At 24 h after the dose, the animals were sacrificed and tissues removed for analysis. Total radioactivity in tissues was determined by oxidation and liquid scintillation counting.

Setting [6] is: Table 5 (selected IC50 data from Table 4), read-out: HIV IC50.
Setting [7] is: Table 4, activity of isomer A over isomer B.

In data set [1], `CCOC(=O)[C@H](CC)NP(=O)(CO[C@H](C)Cn1cnc2c(N)ncnc21)Oc1ccccc1` (stereo partly drawn) [ABA-ethyl] displayed an A/B activity of 7.5x and a Fold change of 625x. In addition, the CC50 in data set [2] is above 100000 nM.

In the case of `CC(C)OC(=O)[C@H](C)N[P@](=O)(CO[C@H](C)Cn1cnc2c(N)ncnc21)Oc1ccccc1` [compound 3], the IC50 in data set [1] (setting [6]) stood at 5 nM. Also, the “Human Plasma Stability (HP) t1/2” value in data set [3] is listed as 90.0 min. Moreover, the “MT-2 extract hydrolysis product” value in data set [4] is given as “Met. X & PMPA”.

As to `COC(=O)C(C)NP(=O)(COC(C)Cn1cnc2c(N)ncnc21)Oc1ccccc1` (single isomer, unassigned) [GS-6957b], the Fold change in data set [1] (Table 4, IC50 relative to PMPA) was 33x.

Take `CCOC(=O)C(CC)NP(=O)(COC(C)Cn1cnc2c(N)ncnc21)Oc1ccccc1` (stereo not drawn) [GS-7342]: the Fold change in data set [1] is listed as 1,250x.

As to `CC(C)OC(=O)C(C)NP(=O)(COC(C)Cn1cnc2c(N)ncnc21)Oc1ccccc1` (single isomer, unassigned) [compound 4], the IC50 in data set [1] (setting [6]) is 60 nM.

As to `C[C@H](Cn1cnc2c(N)ncnc21)OCP(=O)(O)O` [PMPA, (R)-9-[2-(phosphonomethoxy)propyl]adenine, reference compound], the Fold change in data set [1] worked out at 1x.

On to `CCOC(=O)CNP(=O)(COC(C)Cn1cnc2c(N)ncnc21)Oc1ccccc1` (mixture of isomers) [Gly-ethylester], for which, in data set [1], the A/B activity was found to be 20x and the Fold change amounted to 10x. Further, the IC50 in data set [1] (read-out: IC50) came out at 500 nM.

For the compound `CC(C)OC(=O)OCOP(=O)(CO[C@H](C)Cn1cnc2c(N)ncnc21)OCOC(=O)OC(C)C.O=C(O)/C=C/C(=O)O` [TDF, tenofovir disoproxil fumarate], the “% Dose” value in data set [5] (Abdominal fat), in data set [5] (Adrenal Gland), in data set [5] (Axillary Lymph Nodes), in data set [5] (Bile), in data set [5] (Bone Marrow) and in data set [5] (Brain) was 0.00% throughout. The “% Dose” value in data set [5] (Cerebrospinal Fluid) worked out at 0.00%; in data set [5] (Duodenum), 0.49%; in data set [5] (Eye (L + R)), 0.00%; in data set [5] (Femoral Bone), 0.00%; in data set [5] (Gall bladder) it was 0.00%; in data set [5] (Heart), 0.03%. Also, the “% Dose” value in data set [5] (Ileum) came to 0.01%; in data set [5] (Iliac Lymph Nodes) it was 0.00%; in data set [5] (Inguinal Lymph Nodes) it was 0.00%; in data set [5] (Lungs) it was 0.03%; in data set [5] (Mesenteric Lymph Nodes), 0.00%; in data set [5] (Pancreas), 0.00%. For the same compound, the “% Dose” value in data set [5] (Pituitary Gland), in data set [5] (Prostate), in data set [5] (Salivary Gland (L + R)), in data set [5] (Skeletal Muscle), in data set [5] (Skin) and in data set [5] (Spinal Cord) was 0.00% throughout. The “% Dose” value in data set [5] (Spleen) was found to be 0.00%; in data set [5] (Stomach), 0.11%; in data set [5] (Testes (L + R)), 0.02%; in data set [5] (Thyroid Gland), 0.00%; in data set [5] (Whole Blood) it was 0.00%. For the same compound, the Conc. in data set [5] (Abdominal fat) is reported as 0.16 ug-eq/g; in data set [5] (Adrenal Gland), 1.90 ug-eq/g; in data set [5] (Axillary Lymph Nodes), 0.37 ug-eq/g; in data set [5] (Bone Marrow) it was 0.20 ug-eq/g; in data set [5] (Brain), “<LOD”; in data set [5] (Cerebrospinal Fluid) it was “<LOD”. For the same compound, the Conc. in data set [5] (Eye (L + R)) amounted to 0.06 ug-eq/g; in data set [5] (Femoral Bone), 0.08 ug-eq/g; in data set [5] (Heart) it was 0.46 ug-eq/g; in data set [5] (Ileum), 0.50 ug-eq/g; in data set [5] (Iliac Lymph Nodes), 0.51 ug-eq/g; in data set [5] (Inguinal Lymph Nodes), 0.28 ug-eq/g. The Conc. in data set [5] (Lungs) was determined as 0.53 ug-eq/g; in data set [5] (Mesenteric Lymph Nodes), 1.20 ug-eq/g; in data set [5] (Pancreas), 0.57 ug-eq/g; in data set [5] (Pituitary Gland), 0.23 ug-eq/g; in data set [5] (Prostate), 0.23 ug-eq/g; in data set [5] (Salivary Gland (L + R)), 0.45 ug-eq/g. Further, the Conc. is 0.11 ug-eq/g in data set [5] (Skeletal Muscle); 0.13 ug-eq/g in data set [5] (Skin); “<LOD” in data set [5] (Spinal Cord); 0.63 ug-eq/g in data set [5] (Spleen); 0.30 ug-eq/g in data set [5] (Thyroid Gland); 0.85 ug-eq/g in data set [5] (Whole Blood). Also, in data set [5] (dog, in vivo), the “prodrug concentration in the plasma” value was “below the level of assay detection”.

As to `COC(=O)C(C)NP(=O)(COC(C)Cn1cnc2c(N)ncnc21)Oc1ccccc1` (single isomer, unassigned) [GS-6957a], the Fold change in data set [1] (Table 4, IC50 relative to PMPA) is 670x.

`CCOC(=O)CNP(=O)(CO[C@H](C)Cn1cnc2c(N)ncnc21)Oc1ccccc1` (stereo partly drawn) [GS-7119] had a Fold change in data set [1] of 100x. Besides, in data set [2], the CC50 is above 100000 nM.

In turn, `CCOC(=O)C(C)NP(=O)(COC(C)Cn1cnc2c(N)ncnc21)Oc1ccccc1` (mixture of isomers) [Ala-ethyl, Phenyl PMPA, Ethyl L-Alanyl Amidate] returned a Fold change in data set [1] (Table 4, IC50 relative to PMPA) of 250x. The A/B activity in data set [1] (setting [7]) came out at 10x. Also, in data set [2], the CC50 was found to be 60000 nM.

`COC(=O)C(Cc1ccccc1)NP(=O)(COC(C)Cn1cnc2c(N)ncnc21)Oc1ccccc1` (single isomer, unassigned) [GS-7003b] displayed a Fold change in data set [1] of 50x.

Turning to `COC(=O)[C@H](Cc1ccccc1)NP(=O)(CO[C@H](C)Cn1cnc2c(N)ncnc21)Oc1ccccc1` (stereo partly drawn) [Phe-methylester], in data set [1], the A/B activity was 10x and the Fold change was 170x.

Regarding `CC(C)OC(=O)[C@H](C)N[P@](=O)(CO[C@H](C)Cn1cnc2c(N)ncnc21)Oc1ccccc1` [GS-7339], in data set [1] (Table 4, effect of diastereomer, read-out: IC50), the IC50 came to 60 nM. For the same compound, the cytotoxic concentration (CC50) in data set [2] is above 100000 nM.

Regarding `CC(C)OC(=O)OCOP(=O)(CO[C@H](C)Cn1cnc2c(N)ncnc21)OCOC(=O)OC(C)C` [compound 7], in data set [3], the “Human Plasma Stability (HP) t1/2” value was 0.41 min.

In data set [1], `COC(=O)C(Cc1ccccc1)NP(=O)(COC(C)Cn1cnc2c(N)ncnc21)Oc1ccccc1` (single isomer, unassigned) [GS-7003a] showed a Fold change of 500x.

As to `COC(=O)C(C)NP(=O)(COC(C)Cn1cnc2c(N)ncnc21)Oc1ccccc1` (mixture of isomers) [Ala-methylester], the Fold change in data set [1] (Table 4, IC50 relative to PMPA) worked out at 200x. The same compound had an A/B activity in data set [1] (setting [7]) of 20x. In addition, half-maximal cytotoxicity in data set [2] (CC50) was put at 80000 nM.

For `CCOC(=O)CNP(=O)(COC(C)Cn1cnc2c(N)ncnc21)Oc1ccccc1` (single isomer, unassigned) [GS-7335], the Fold change in data set [1] is reported as 5x.
